1 compound from patent US8399466B2, “Composition for regenerative treatment of cartilage disease” (Mitsubishi Tanabe Pharma Corporation, priority 2001, dated 2013) can be followed below.

One test has as its system articular chondrocytes. Put plainly: Increase of matrix production of articular chondrocytes (Alcian blue staining of proteoglycan). The test is classed as cell-based, rabbit. As to conditions: for Proteoglycan Production (%): cultivation until day 5, vehicle = 100. As to the method:
Four NZW line rabbits (Kitayama Labes., Co Ltd.; male; 4-week-old) were sacrificed with bleeding under ether anesthesia and femur knee joints were collected aseptically. The collected knee joints were stored in phosphate buffer (pH 7.2) containing 0.2% glucose and only the cortical layer of knee joint was scrapped with a surgical knife into a 50 ml tube containing phosphate buffer (pH 7.2) containing 0.2% glucose. The collected knee joint cortical layer was cut into as small sections as possible on a dish with a razor and shaken at 37° C. for 15 minutes in phosphate buffer containing 0.2% glucose, supplied with 10× trypsin-ethylenediamine tetraacetic acid (EDTA)·4 Na salt (GIBCO; Cat. No. 15400-054) (50 ml, with 100 mg of trypsin and 40 mg of EDTA·4Na; pH 7.2). After shaking, the sample was centrifuged (1,400 rpm) to collect precipitates, and the precipitates were washed twice with 40 ml of phosphate buffer containing 0.2% glucose. The washed precipitates were combined with 40 ml of serum-free α-minimum essential medium (MEM: GIBCO; Cat: No. 12571-063) containing 60 mg of collagenase for cell diffusion (Wako Pure Chemical Industries, Ltd., 034-10533) and transferred to a 100 ml beaker containing a sterilized stirrer bar. Under stirring with the stirrer bar, the collagenase digestion was carried on for about 1 hour in a CO2 incubator at 37° C. Cartilage fragments were removed from the collagenase-treated cells using a […] Cell Strainer ([FALCON; Cat. No. 2340]). To the residual treated cells was added 10 ml of α-MEM medium containing 10% fetal calf serum (FCS), and centrifuged (1,400 rpm). The precipitates were washed with 10% FCS-αMEM medium twice, suspended in appropriate volume of the same medium and the resultant suspension was seeded into collagen type II (Wako Pure Chemical Industries, Ltd., 033-13901)-coated plates (48 well) at 20,000 cells/well. On the next day, the medium was replaced with 10% FCS-αMEM medium.
When cells reached to confluent after the medium exchange procedure above, the medium for test group was replaced with test compound-containing medium (including 0.1% dimethylsulfoxide as a vehicle). As a medium to which a test compound is added, 10% FCS-αMEM medium containing 0.2 mM ascorbic acid was used. The day on which test compound-containing medium was added for the first time was defined as “day 1”. The medium exchange with the same medium was again conducted at day 3 and the cultivation continued until day 5. As to the control group, the medium was exchanged at the same time using the same medium as the test group except that it is free of test compound (containing vehicle only), and the cultivation was carried out in the same manner. After completion of cultivation, the supernatant was removed from the culture medium. Cells were fixed by addition of 0.25 ml of neutral buffer containing 4% paraformaldehyde and incubation for 2 hours. Cells were washed three times with 1 ml of phosphate buffer (pH 7.2) and then stained for 4 hours with 0.1% Alcian blue 8GX (Sigma; A3157) dissolved in 0.1 M hydrochloric acid, which Alcian blue selectively stains cartilage matrix proteoglycan. After staining, the cells were washed 3 times with 1 ml of phosphate buffer (pH 7.2). Alcian blue which had stained cartilage matrix was dissolved with 0.25 ml of aqueous 6 M guanidine hydrochloride solution and a portion of the solution was used to determine the absorbance at 620 nm. The amounts of Alcian blue used for staining was calculated from the absorbance, which in turn was used for the estimation of the amount of matrix (proteoglycan).

Test [1] deals with cAMP-hydrolyzing PDE expressed in articular cartilage (PDE4-related peaks). Put plainly: cAMP hydrolyzing activity (PDE activity) of Mono Q fractions of articular cartilage extract, radio-labeled nucleic acid assay. The test is classed as biochemical, rabbit. Particulars: final concentration 1×10^−5 M; FIG. 1. As to the method:
Four NZW line rabbits (Kitayama Labes., Co Ltd.; male; 4-week-old) were sacrificed with bleeding under ether anesthesia and femur knee joints were collected aseptically. The collected knee joints were stored in phosphate buffer (pH 7.2) containing 0.2% glucose and only the cortical layer of knee joint portion was scrapped with a knife into a 50 ml tube containing phosphate buffer (pH 7.2) containing 0.2% glucose. The collected knee joint cortical layer was cut into as small sections as possible on a dish with a razor, washed with ice-cold phosphate buffer and homogenized with a homogenizer (Polytron: Kinematica A.G.) in homogenization buffer (20 mM Tris-HCl, pH 7.4, 2 mM magnesium acetate, 0.3 mM calcium chloride, 1 mM dithiothreitol, 40 μM leupeptin, 1.3 mM benzamidine, 0.2 mM phenylmethylsulfonyl fluoride and 1 mM sodium azide). The resultant homogenate was centrifuged (100,000×g, 60 minutes) to separate supernatant.
The supernatant was subjected to Mono Q Sepharose High Performance column (Amersham Pharmacia Biotech) previously equilibrated with an elution buffer (20 mM Tris-HCl, pH 7.4, 1 mM calcium chloride, 1 mM dithiothreitol, 2 μM leupeptin, 5 mM benzamidine). […]
The determination of PDE activity was performed by a radio-labeled nucleic acid assay. […] To each eluate was added a liquid scintillation cocktail and the radio activity was measured.

Molecules are shown by their SMILES.

Take `COc1ccc(C2CNC(=O)C2)cc1OC1CCCC1` (stereo not shown) [Compound (44)]: the “Proteoglycan Production (%)” value in the test on articular chondrocytes (1 × 10^−4 M) came to 116%; in the test on articular chondrocytes (1 × 10^−5 M), 125%. Further, in the test with articular chondrocytes (summary of Table 1), the “matrix production promoting activity” value was “exert matrix production promoting activity”. For the same compound, the “inhibition of cAMP hydrolyzing activity of the four peaks” value in test [1] is on record as “strongly inhibited”.
